Earlier results in publication PMC10957545, “Anti-diabetic and anti-inflammatory bioactive hits from Coriaria intermedia Matsum. stem and Dracontomelon dao (Blanco) Merr. & Rolfe bark through bioassay-guided fractionation and liquid chromatography-tandem mass spectrometry” (Frontiers in Pharmacology, 2024).
Converted amounts (≈) assume the structure as drawn. Where two headings read alike, the source gives them in different places.

Tests used:
[1] = target: α-glucosidase (AGLUC)
[2] = system: lipopolysaccharide (LPS)-induced nitric oxide (NO), prostaglandin E2 (PGE2), and interleukin-6 (IL-6) production; parameters: method as in BenSaad et al., 2017; settings: ref BenSaad et al., 2017
[3] = target: 15-lipoxygenase-1 (LOX)
[4] = system: proinflammatory cytokines and mediators; cyclooxygenase-2 expression; parameters: method as in Zhao et al., 2008, as cited in Li et al. (2018); settings: ref Zhao et al., 2008, as cited in Li et al. (2018)
[5] = system: streptozotocin-induced diabetic rats; parameters: method as in Nandini and Naik, 2019; settings: treated orally, end of the study; ref Nandini and Naik, 2019
[6] = system: ovalbumin-induced asthmatic mice; parameters: method as in Jin and Yi, 2023; settings: via the AMP-activated protein kinase pathway; ref Jin and Yi, 2023
[7] = system: mice fed with a high fat diet (HFD); parameters: method as in Liao et al., 2022; settings: ref Liao et al., 2022
[8] = system: different cancer cell lines; parameters: method as in Li et al., 2018; settings: both in vitro and in vivo; ref Li et al., 2018
[9] = system: spike receptor binding domain (spike-RBD) of SARS-CoV-2 virus / human angiotensin-converting enzyme 2 (hACE2); parameters: method as in Yang et al., 2021; settings: dose-dependent manner; ref Yang et al., 2021
[10] = system: normal cells or tissues
[11] = system: advanced glycation end products formation; parameters: method as in Jung et al., 2012; settings: ref Jung et al., 2012; read-out: inhibition of advanced glycation end products formation, IC50
[12] = system: α-amylase; parameters: method as in Kato et al., 2008; settings: at a concentration of 400 µM; ref Kato et al., 2008
[13] = system: maltase; parameters: method as in Kato et al., 2008; settings: at a concentration of 400 µM; ref Kato et al., 2008
[14] = system: sucrase; parameters: method as in Kato et al., 2008; settings: at a concentration of 400 µM; ref Kato et al., 2008
[15] = system: LPS-induced nuclear factor kappa B (NF-κB) activation; parameters: method as in Oh et al., 2010; settings: ref Oh et al., 2010
[16] = system: p38, ERK, and PI 3-kinase/Akt and ROS accumulation; parameters: method as in Moon et al., 2018; settings: ref Moon et al., 2018
[17] = system: glucose uptake; parameters: method as in Xu et al., 2018; settings: ref Xu et al., 2018
[18] = system: beta pancreatic cells; parameters: method as in Xu et al., 2018; settings: ref Xu et al., 2018
[19] = system: neuroinflammation; parameters: method as in Jeon et al., 2020; settings: abscisic acid intake; ref Jeon et al., 2020
[20] = system: colon inflammation; parameters: method as in Guri et al., 2011; settings: abscisic acid intake; ref Guri et al., 2011
[21] = isolated from Terminalia macroptera leaves, ref Pham et al., 2014

O=c1oc2c(O)c(O)cc3c(=O)oc4c(O)c(O)cc1c4c23 [Compound 1, ellagic acid]
IC50 AGLUC ([1]; previously reported, ref You et al., 2012): 2.18 [You et al. (2012)] µg/mL | effect on LPS-induced NO, PGE2 and IL-6 production [2]: inhibition

O=C(O[C@@H]1O[C@@H]2COC(=O)c3cc(O)c(O)c(O)c3-c3c(cc(O)c(O)c3O)C(=O)O[C@H]([C@H]1O)[C@@H]2O)c1cc(O)c(O)c(O)c1 [Compound 2, corilagin]
IC50 [1, 21]: 2.58 ± 0.08 µM | IC50 [3, 21]: 41 ± 4 µM | IC50 LOX ([3]; µM value given in µg/mL, ref Pham et al., 2014): 26.01 ± 2.5 [Pham et al. (2014)] µg/mL | effect on cyclooxygenase-2 expression ([4]; protein and gene level): reduce | effect on production of proinflammatory cytokines and mediators [4]: significantly reduce | fasting blood glucose levels compared to diabetic control rats [5]: reduced | airway inflammation and collagen deposition [6]: reduce | glucose intolerance and insulin resistance ([7]; HFD-fed mice): improve | plasma lipid concentrations ([7]; HFD-fed mice): improved | HFD-induced accumulation of fat in the liver and liver injury [7]: reduce | antitumor activities [8]: exhibit antitumor activities | binding of spike-RBD to hACE2 [9]: inhibit | toxic effects on normal cells or tissues [10]: almost no toxic effects

COc1cc2oc(=O)ccc2cc1O [Compound 4, isoscopoletin]
IC50 ([3]; ref Deng et al., 2007): 15.1 µM | IC50 LOX ([3]; µM value given in µg/mL, ref Deng et al., 2007): 2.902 [Deng et al. (2007)] µg/mL | IC50 [11]: 18.8 ± 0.5 µM | % inhibition of α-amylase [12]: 0.2% | % inhibition of maltase [13]: 32.2% | % inhibition of sucrase [14]: 20.9%

CCCCCCCC/C=C\CCCCCCCC(N)=O [Compound 6, oleamide]
IC50 AGLUC ([1]; ref Fang et al., 2022): 30.69 ± 1.47 [Fang et al. (2022)] µg/mL | effect on LPS-induced NF-κB activation [15]: inhibition | effect on p38, ERK, and PI 3-kinase/Akt and ROS accumulation [16]: suppression

CC1=CC(=O)CC(C)(C)[C@@]1(O)/C=C/C(C)=C\C(=O)O [Compound 9, abscisic acid]
effect on glucose uptake in vitro [17]: regulates | effect on insulin production in beta pancreatic cells [18]: can stimulate | effect on neuroinflammation [19]: reduces | effect on colon inflammation [20]: reduces

Oc1cccc(O)c1O [Compound 14, pyrogallol]
IC50 LOX ([3]; mM value given in µg/mL, ref Yasumoto et al. (1970)): 1.097 × 10^3 [Yasumoto et al. (1970)] µg/mL | IC50 ([3]; ref Yasumoto, Yamamoto, and Mitsuda, 1970): 8700 µM

O=c1c(O[C@@H]2O[C@H](CO)[C@H](O)[C@H](O)[C@H]2O)c(-c2ccc(O)c(O)c2)oc2cc(O)cc(O)c12 [hyperin, reference compound]
IC50 AGLUC ([1]; ref Zhang et al., 2013): 19.26 µg/mL (≈ 41.5 µM)
